These results are taken from patent US20210338648A1, “METHODS AND COMPOSITIONS FOR REDUCING SERUM URIC ACID” (AstraZeneca AB, priority 2018, published 2021).

Entries after “also recorded” stand apart in the source; their conditions may differ.

A short description of data set [1]: Phase 2 crossover study: urinary excretion of uric acid (uUA). The data set is classed as in vivo, human. An excerpt: Thirty-six asymptomatic hyperuricemic patients aged 18 to 65 years (inclusive) were enrolled into this study at two study centers. Twenty-four patients were enrolled and completed the study. Due to inadequate urine sampling, 12 additional patients were included to ensure an adequate sample size (at least 20 evaluable patients) to evaluate the effects of intensive UA lowering with verinurad, febuxostat and dapagliflozin on urinary excretion of UA. With 24 completers available during the interim analysis, this will provide for a total sample size of 36 evaluable patients. Before any study specific assessments were performed, potential patients provided informed consent. Each patient underwent the below mentioned visits: • A Screening period of maximum 28 days; • Two treatment periods during which patients were resident in the Clinical Unit from Day −2 to Day 1 and from Day 6 to Day 8; and • A Follow-up Visit within 14 to 28 days after the first administration of Investigational Medicinal Product (IMP) in Treatment Period 2. […] Treatment Period 1 and Treatment Period 2 were separated by a washout period of 7 to 21 days. • 1.

Data set [2] in a line: Phase 2 crossover study: serum uric acid (sUA) after 7 days of treatment. The data set is classed as in vivo, human. To be noted: dapagliflozin added to verinurad + febuxostat; D7. The text has this:
(§1) Thirty-six asymptomatic hyperuricemic patients aged 18 to 65 years (inclusive) were enrolled into this study at two study centers. Twenty-four patients were enrolled and completed the study. Due to inadequate urine sampling, 12 additional patients were included to ensure an adequate sample size (at least 20 evaluable patients) to evaluate the effects of intensive UA lowering with verinurad, febuxostat and dapagliflozin on urinary excretion of UA. With 24 completers available during the interim analysis, this will provide for a total sample size of 36 evaluable patients.
• 1. […] At screening: One sUA assessment. […] Area under plasma concentration time curve over a dosing interval (24 hours) (AUCτ) assessment for verinurad and its main metabolites, febuxostat, and dapagliflozin [Time Frame: On Treatment Period 1 and 2: Day 7 (Pre-dose and 15 minutes, 30 minutes, 1 hour, 1.5, 2, 3, 4, 8, 12 and 24 hours post-dose)] • To assess AUCT after administration of single oral fixed dose of verinurad+febuxostat+dapagliflozin/placebo • 3. […]

Data set [3] can be described thus: Phase 2 crossover study: safety and tolerability (adverse events, serum creatinine, serum sodium). The data set is classed as in vivo, human. To be noted: Grp1 vs Grp2.
Description: as §1, with “patients. […] At screening: One sUA assessment. […] On Treatment Period 1 and 2: […] On Treatment Period 1 and 2: […] Systolic blood pressure [SBP] […] Diastolic blood pressure [DBP]” for “patients.”

The conditions of data set [4]: co-administration, Day 7.
Description: This study was a randomized, placebo controlled, double-blind, 2-way crossover study conducted on asymptomatic hyperuricemic patients.
On Day −2 of Treatment period 1, patients were randomized (1:1) to 1 of 2 treatment sequences (AB or BA). […] On Day 1, after all dosing and all assessments were performed, patients received instruction to administer the IMP at home once daily in the morning from Day 2 to Day 6 and the IMP dispensed for home dosing. Patients returned to the Clinical Unit on Day 6 and were residential in the Clinical Unit from Day 6 to Day 8.

With `CCOc1ccc(Cc2cc([C@@H]3O[C@H](CO)[C@@H](O)[C@H](O)[C@H]3O)ccc2Cl)cc1` [dapagliflozin], the “peak uUA excretion (result in words)” value in data set [1] (dapagliflozin 10 mg/day added to verinurad 9 mg/day + febuxostat 80 mg/day, D7) was “no increase; also recorded: without an increase in uUA excretion”. Further, the “total 24 h uUA excretion (result in words)” value in data set [1] (dapagliflozin added to verinurad + febuxostat vs placebo, 24 h urine, all subjects) is listed as “no difference”. The “sUA levels (result in words)” value in data set [2] is listed as “significantly reduced; also recorded: additional sUA lowering”. Also, in data set [3], the “serum creatinine (sCr), between-group difference” value is “without an increase in uUA excretion, or changes in sCr”. For the same molecule, in data set [4], the “effect on febuxostat pharmacokinetics” value is reported as “did not affect” and the “effect on verinurad pharmacokinetics” value was “did not affect”.
